From US9326988B2, “Treatment and/or prevention of parkinson's disease dementia with ceftriaxone” (CHUNG SHAN MEDICAL UNIVERSITY, priority 2012, dated 2016)

Columns and labels:
rats with PDD = assay: T-maze test (working memory) in MPTP-HCl-induced PDD rats; format: in vivo, male Wistar rats
Experimental: 1-methyl-4-phenyl-1,2,3,6-tetrahydropyridine hydrochloride (MPTP-HCl) was used to induce PDD in the rats, and the therapeutic effect of ceftriaxone on PDD was evaluated via behavioral tests and histopathological assessment of the brain for the rats. The experiments of this example were conducted substantially according to the method as described in Ho Y. J. et al. (2011), Behav. Brain Res., 219:280-290.
The rats in the pathological control group, the preventive groups, and the treatment groups were anesthetized using Zoletil (Virbac, Carros, France; 20 mg/kg, intraperitoneal injection). Afterward, 0.5 M MPTP-HCl (in saline) was slowly infused bilaterally into the substantia nigra pars compacta (SNc) of the mesencephalon of each rat in the pathological control group, the preventive groups, and the treatment groups (0.21 mg/side) so as to induce the same to develop PDD.
5 days before the MPTP-HCl injection, ceftriaxone (Sigma) was administered to the rats in the preventive groups 1,2 via […] day after the MPTP-HCl injection. After the MPTP-HCl injection, […] 2,3 via intraperitoneal injection respectively at a daily dose of 200 mg/kg, at a daily dose of 100 mg/kg, and at a daily dose of 200 mg/kg, and saline was administered to the rats in the pathological control group and the sham-operated group 1 via intraperitoneal injection at a daily dose of 1 mL/kg. […] The rats in the pathological control group, the treatment groups 1,2,3, and the sham-operated groups 1,2,3 were subjected to the once-a-day administration until the end of the 14th day after the MPTP-HCl injection.
Starting on the 8th day after the MPTP-HCl injection, the rats in each group were subjected to the T-maze test as described in section C of this example. Starting on the 12th day after the MPTP-HCl injection, the rats in each group were subjected to the object recognition test as described in section D of this example. On the 15th day after the MPTP-HCl injection, the rats in the treatment group 1, the sham-operated group 1, and the pathological control group were subjected to the histopathological analysis as described in section E of this example.
In order to investigate the effect of ceftriaxone on the working memory of the rats with PDD, on the 8th day after the MPTP-HCl injection, 11 rats, 32 rats, and 36 rats were randomly selected respectively from the treatment group 1, the sham-operated group 1, and the pathological control group, and the aforesaid randomly selected rats and each of the rats in the rest of the groups were subjected to a T-maze test. The T-maze test lasted a total of three days, and was conducted substantially according to the following methods: • (1) One day before the start of the T-maze test, the rats are subjected to 23 hours of fasting. Furthermore, on each of three days for the training session, after all of trials were finished, the rats were fed for an hour. • (2) The training session—the 1st and 2nd days of the T-maze test: • The respective rat is subjected to a total of 9 trials. In each of the trials, one forced run and one choice run were sequentially conducted. The time interval between the forced run and the choice run was 30 seconds. The respective rat was placed at the start end 11 of the T-maze to begin either the forced run or the choice run. When the forced run was conducted, the sliding door 22 of one of the two choice arms 2 was closed, and a food serving as a reward was placed at the terminal end 21 of the other one of the two choice arms 2.

aged-impaired (AI) rats = settings: daily dose of 200 mg/kg for 7 days; cited from earlier work
[1] = test system: rats chronically exposed to hypobaric hypoxia; settings: cited from earlier work

Compound: CO/N=C(\C(=O)N[C@@H]1C(=O)N2C(C(=O)O)=C(CSc3nc(=O)c(=O)[nH]n3C)CS[C@H]12)c1csc(N)n1 [ceftriaxone, Ceftriaxone]
- correct response rate compared to the pathological control group (rats with PDD; Example 1 preventive group 1: 100 mg/kg daily i.p. from 5 days before MPTP-HCl to 14th day after, determined 10th day (FIG. 3)): higher
- correct response rate compared to the pathological control group (rats with PDD; Example 1 preventive group 2: 200 mg/kg daily i.p. from 5 days before MPTP-HCl to 14th day after, determined 10th day (FIG. 3)): higher
- correct response rate compared to the pathological control group (rats with PDD; Example 1 treatment group 1: 200 mg/kg daily i.p. after MPTP-HCl injection to 14th day, determined 10th day, difference statistically significant (FIG. 3)): higher
- correct response rate compared to the pathological control group (rats with PDD; Example 1 treatment group 2: 100 mg/kg daily i.p. starting 3rd day after MPTP-HCl to 14th day, determined 10th day, difference statistically significant (FIG. 3)): higher
- correct response rate compared to the pathological control group (rats with PDD; Example 1 treatment group 3: 200 mg/kg daily i.p. starting 3rd day after MPTP-HCl to 14th day, determined 10th day, difference statistically significant (FIG. 3)): higher
- correct response rate compared to the pathological control group (rats with PDD; Example 2 treatment group 1: 10 mg/kg daily i.p. after MPTP-HCl injection to 14th day, determined 10th day (FIG. 7)): significantly higher
- correct response rate compared to the pathological control group (rats with PDD; Example 2 treatment group 2: 50 mg/kg daily i.p. after MPTP-HCl injection to 14th day, determined 10th day (FIG. 7)): significantly higher
- cognitive impairment (aged-impaired (AI) rats): able to ameliorate cognitive impairment of the AI rats
- cognitive impairment resulting from hypobaric hypoxia [1]: capable of ameliorating the cognitive impairment resulting from hypobaric hypoxia
- neuronal degeneration and chromatin condensation [1]: decreasing neuronal degeneration and chromatin condensation
- oxidative stress in the hippocampus [1]: reducing oxidative stress in the hippocampus
